Columns and labels:
Assay type in all cases: ADME
[1] = Half life period in buffer solution at pH 7.4: found to be stable
[2] = Half life period in the presence of alpha-chymotrypsin at the concentration of 0.25 mg/ml
[3] = Half life period in the presence of alpha-chymotrypsin at the concentration of 0.5 mg/ml
[4] = Half life period in the presence of alpha-chymotrypsin at the concentration of 1.0 mg/mL
[5] = Half life period in buffer solution at pH 7.4

| half-life [2] [h] | half-life [3] [h] | half-life [4] [h] | half-life [5] [h] | SMILES | T1/2 [1] |
| --- | --- | --- | --- | --- | --- |
| 0.55 | 0.583 | 0.533 | 0.633 | CC(=O)N(CO)C(Cc1ccccc1)C(N)=O (stereo unspecified) |  |
| 9.6 | 4.9 | 2.3 |  | CC(=O)NC(Cc1ccccc1)C(N)=O (stereo unspecified) | Stable |
| 1.08 | 1.07 | 1.05 | 1.05 | CC(=O)N(CO)C(Cc1ccccc1)C(=O)NCc1ccccc1 (stereo unspecified) |  |

| SMILES | half-life [2] [h] | half-life [3] [h] | half-life [4] [h] | half-life [5] [h] | T1/2 [1] |
| --- | --- | --- | --- | --- | --- |
| CC(=O)NC(Cc1ccccc1)C(=O)NCc1ccccc1 (stereo unspecified) | 15 | 7.5 | 3.9 |  | Stable |

From ChEMBL document CHEMBL1127222, “Protection of the peptide bond against -chymotrypsin by the prodrug approach” (Bioorg Med Chem Lett, 1993)
